Measured values published in paper PMC6270165, “Synthesis and Biological Evaluation of 3-Benzisoxazolyl-4-indolylmaleimides as Potent, Selective Inhibitors of Glycogen Synthase Kinase-3β” (Molecules, 2013).

Tests used:
[1] = target: T1, PKC-epsilon (Homo sapiens, UniProt Q02156); assay: PKC-epsilon kinase assay (HTRF); format: biochemical; settings: read-out: PKC-epsilon inhibition% at 0.8 μg/mL (~2 μM)
T1 construct: His-tag (N); made in house
T1 sequence (Q02156 1-737): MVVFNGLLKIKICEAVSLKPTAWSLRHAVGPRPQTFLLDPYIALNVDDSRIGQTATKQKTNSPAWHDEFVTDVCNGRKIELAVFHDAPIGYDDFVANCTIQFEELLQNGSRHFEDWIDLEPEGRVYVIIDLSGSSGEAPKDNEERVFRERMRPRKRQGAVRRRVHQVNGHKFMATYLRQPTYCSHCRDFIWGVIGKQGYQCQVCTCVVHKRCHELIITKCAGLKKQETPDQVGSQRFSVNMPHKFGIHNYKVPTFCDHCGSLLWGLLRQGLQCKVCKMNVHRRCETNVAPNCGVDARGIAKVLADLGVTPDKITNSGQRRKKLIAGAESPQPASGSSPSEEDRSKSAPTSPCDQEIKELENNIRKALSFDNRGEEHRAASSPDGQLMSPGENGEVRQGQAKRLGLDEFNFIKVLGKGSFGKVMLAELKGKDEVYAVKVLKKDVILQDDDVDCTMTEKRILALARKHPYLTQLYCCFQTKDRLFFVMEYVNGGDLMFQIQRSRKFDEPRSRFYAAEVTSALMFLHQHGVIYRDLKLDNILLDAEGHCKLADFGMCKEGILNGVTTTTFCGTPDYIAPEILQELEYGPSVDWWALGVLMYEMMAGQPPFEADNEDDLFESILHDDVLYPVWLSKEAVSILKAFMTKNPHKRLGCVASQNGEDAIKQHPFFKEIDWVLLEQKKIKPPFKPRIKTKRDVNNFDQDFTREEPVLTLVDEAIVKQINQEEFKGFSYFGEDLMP
Experimental: (§1) GSK3β belongs to CMGC family. Here, the other family members were used to evaluate the selectivity of GSK3β inhibitors, including PKC-epsilon (AGC family), JAK2 (TK family), Braf (TKL family), DRAK2 (CAMK family) and IKKβ (other family).The recombinant GST-GSK-3βprotein was expressed in Escherichia coli strain BL21-Codon Plus (DE3), purified by GSTrap affinity chromatography, and cleaved by thrombin. The GSK-3β kinase assay was carried out with the Z´-LYTETM Kinase Assay kit Ser/Thr 9 Peptide substrate (Invitrogen, Grand, NY, USA) in 10 μL reaction volume containing 50 nM enzyme, 30 μM ATP and 2 μM substrate peptide. Drak2 Proteins were presented by professor Jiang-ping Wu (Laboratory of Immunology, Research Centre, CHUM, Notre Dame Hospital, Pavilion DeSève). The Drak2 kinase reaction was performed in a final assay volume of 3.4 μL using the ADP-GLO Kinase Assay Kit (Promega, Madison, WI, USA), according the ADP-GLO protocol and read on an EnVision plate reader. The recombinant PKC-epsilon, IKKβ, and JAK2 with N-terminal His-tag were expressed using baculovirus expression system and purified with Ni-Beads. BRAF protein was from Carna Biosciences, Inc. (Kobe Port Island, Japan). And the related kinase reactions were performed in a final assay volume of 10 μL using the related HTRF Assay Kit (Cisbio, Codolet, France). Reactions were according the HTRF protocol and read on an EnVision plate reader. All reactions were carried out in triplicate. […] Data were expressed as mean ± SE.

[2] = target: T2, IKK2 (Homo sapiens, UniProt O14920); assay: IKK2 (IKKβ) kinase assay (HTRF); format: biochemical; settings: read-out: IKK2 inhibition% at 0.8 μg/mL (~2 μM)
T2 construct: His-tag (N); made in house
T2 sequence (O14920 1-756): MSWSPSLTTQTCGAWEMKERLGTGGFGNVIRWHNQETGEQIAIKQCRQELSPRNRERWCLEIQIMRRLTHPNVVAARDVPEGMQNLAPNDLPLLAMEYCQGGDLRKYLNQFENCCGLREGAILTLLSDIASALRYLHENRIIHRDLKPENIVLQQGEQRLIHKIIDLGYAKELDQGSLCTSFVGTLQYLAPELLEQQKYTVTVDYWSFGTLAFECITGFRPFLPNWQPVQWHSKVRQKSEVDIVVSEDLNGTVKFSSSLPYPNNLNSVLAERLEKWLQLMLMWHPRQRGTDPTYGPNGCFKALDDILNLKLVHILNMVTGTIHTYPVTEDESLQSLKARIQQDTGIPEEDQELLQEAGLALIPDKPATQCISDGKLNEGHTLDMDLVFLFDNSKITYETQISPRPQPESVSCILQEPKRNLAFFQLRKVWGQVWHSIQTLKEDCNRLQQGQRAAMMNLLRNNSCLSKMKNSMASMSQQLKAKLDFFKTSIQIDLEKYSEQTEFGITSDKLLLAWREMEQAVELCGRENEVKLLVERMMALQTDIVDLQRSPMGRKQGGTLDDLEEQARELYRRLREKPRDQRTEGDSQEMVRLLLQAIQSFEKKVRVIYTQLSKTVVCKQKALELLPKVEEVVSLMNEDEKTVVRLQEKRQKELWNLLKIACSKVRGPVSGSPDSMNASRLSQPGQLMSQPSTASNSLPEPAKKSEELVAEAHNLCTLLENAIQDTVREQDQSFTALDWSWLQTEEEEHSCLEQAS
Experimental: as §1

[3] = system: Tau phosphorylation at Ser 396 in SH-SY5Y cells; assay: Aβ25-35-induced Tau phosphorylation (Ser396) in SH-SY5Y cells, Western blotting; format: cell-based, human; settings: 100 nM, inhibitors 1 hour, then Aβ25–35 6 hours, Western blot
Experimental: It has been implicated that GSK-3β is involved in multiple cellular processes, and its ability to hyperphosphorylate Tau protein and induce neurofibrillary tangle was intensively studied. Therefore, the cell-based assay examining Tau phosphorylation at Serine 396 represents a direct functional assay to measure the cellular activity of GSK-3β inhibitors. Compounds 7c, 7f, 7j–l and 7o–q were tested for the ability to reduce Tau phosphorylation at Ser 396 in human neuroblastoma SH-SY5Y cells. LiCl, a well-known inhibitor of GSK-3β [24], was used as a positive control in this assay. […] The Aβ-induced Tau hyperphosphorylation results in neurofibrillary tangle formation, which plays an important role in Alzheimer’s disease. […] In addition, the predictions about these compounds’ brain permeability were performed using ADME module with Discovery Studio 2.1 software package.
SH-SY5Y human neuroblastoma cells were obtained from the American Type Culture Collection (ATCC, Manassas, VA, USA). Cells were cultured in 1:1 DMEM:Ham's F12 containing 10% (v/v) fetal bovine serum (HyClone, Logan, UT, USA), 1% penicillin, and 1% streptomycin at a humidified atmosphere with 5% CO2. The medium was changed every 2 days. […] Antigen-antibody complexes were detected by the ECL Kit.

With `O=C1NC(=O)C(c2cn(CCCN3CCOCC3)c3ccc(Br)cc23)=C1c1noc2ccccc12` [7c, 3-(Benzo[d]isoxazol-3-yl)-4-(5-bromo-1-(3-morpholinopropyl)-1H-indol-3-yl)-1H-pyrrole-2,5-dione] the inhibition at 2 µM [1] was 12.1%, the inhibition at 2 µM [2] was 13.1% and the “Effect on Aβ25-35-induced Tau phosphorylation at Ser 396” value [3] was “obviously reduce”.
